In one test the target is GST tagged truncated human mutant G2019S LRRK2 (Homo sapiens (Human), UniProt Q5S007, G2019S). Put plainly: LRRK2 Km ATP LanthaScreen Assay. The following applies: G2019S LRRK2, 134 μM ATP (Km ATP), mean values. Type of test: biochemical. The gist of the method:
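Enzyme (GST-tagged, truncated) was preincubated with compound for 15 min at RT in 50 mM Tris pH 8.5, 10 mM MgCl2, 0.01% Brij-35, 1 mM EGTA, 2 mM DTT and 0.05 mM orthovanadate. Fluorescein-LRRKtide and 134 μM ATP (Km) were then added for 90 min. EDTA and Tb-anti-pERM antibody stopped the reaction; the TR-FRET 520/495 ratio gave 4-parameter IC50s, reported as mean pIC50.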
Sequence of GST tagged truncated human mutant G2019S LRRK2 (Q5S007 970-2527 G2019S): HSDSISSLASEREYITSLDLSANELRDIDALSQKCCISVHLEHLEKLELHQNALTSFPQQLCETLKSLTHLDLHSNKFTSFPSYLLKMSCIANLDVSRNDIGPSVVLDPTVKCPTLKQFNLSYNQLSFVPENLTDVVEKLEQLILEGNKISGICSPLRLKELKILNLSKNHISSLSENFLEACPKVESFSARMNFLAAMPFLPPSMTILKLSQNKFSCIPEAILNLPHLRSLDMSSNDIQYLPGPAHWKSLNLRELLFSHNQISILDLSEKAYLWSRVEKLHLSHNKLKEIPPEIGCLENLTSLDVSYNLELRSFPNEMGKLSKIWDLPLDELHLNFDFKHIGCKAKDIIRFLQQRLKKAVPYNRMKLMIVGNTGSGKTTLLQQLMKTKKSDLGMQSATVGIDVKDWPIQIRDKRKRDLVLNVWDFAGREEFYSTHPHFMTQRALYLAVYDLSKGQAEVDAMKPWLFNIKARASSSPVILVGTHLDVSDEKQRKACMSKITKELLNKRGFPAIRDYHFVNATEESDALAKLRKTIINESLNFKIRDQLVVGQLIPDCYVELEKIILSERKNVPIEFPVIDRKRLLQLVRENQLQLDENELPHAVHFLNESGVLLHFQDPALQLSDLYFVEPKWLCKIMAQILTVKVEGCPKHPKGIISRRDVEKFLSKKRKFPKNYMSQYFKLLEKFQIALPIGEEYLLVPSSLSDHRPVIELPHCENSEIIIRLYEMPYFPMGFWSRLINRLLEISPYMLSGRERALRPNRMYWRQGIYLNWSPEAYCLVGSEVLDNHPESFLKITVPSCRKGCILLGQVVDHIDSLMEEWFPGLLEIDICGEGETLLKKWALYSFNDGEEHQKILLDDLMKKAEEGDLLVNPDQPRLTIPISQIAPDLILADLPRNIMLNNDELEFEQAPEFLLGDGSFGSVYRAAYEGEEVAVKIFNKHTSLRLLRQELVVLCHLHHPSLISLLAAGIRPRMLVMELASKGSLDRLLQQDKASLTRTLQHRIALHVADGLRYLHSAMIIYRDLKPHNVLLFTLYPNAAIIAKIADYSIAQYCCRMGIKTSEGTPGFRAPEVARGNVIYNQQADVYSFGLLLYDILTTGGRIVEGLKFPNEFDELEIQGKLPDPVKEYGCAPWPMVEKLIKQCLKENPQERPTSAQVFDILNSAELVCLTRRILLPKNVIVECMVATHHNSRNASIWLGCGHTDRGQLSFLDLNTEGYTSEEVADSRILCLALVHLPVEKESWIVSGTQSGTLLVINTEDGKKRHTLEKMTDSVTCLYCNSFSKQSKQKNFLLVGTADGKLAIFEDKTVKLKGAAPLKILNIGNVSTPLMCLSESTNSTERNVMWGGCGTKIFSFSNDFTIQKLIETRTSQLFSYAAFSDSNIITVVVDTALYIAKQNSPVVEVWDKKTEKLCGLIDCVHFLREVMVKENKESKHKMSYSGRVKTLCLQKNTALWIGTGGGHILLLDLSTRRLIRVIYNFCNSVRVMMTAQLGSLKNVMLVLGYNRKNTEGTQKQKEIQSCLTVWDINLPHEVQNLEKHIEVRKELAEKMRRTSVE
As for `C[C@@]1(N2CCC(c3cc4nc(Nc5ccnn5C5CC5)ncc4cc3Cl)CC2)COC[C@@H]1O` (single isomer, unassigned) [Ex-2.85, (3S,4S) or (3R,4R) 4-(4-{6-chloro-2-[(1-cyclopropyl-1H-pyrazol-5-yl)amino]quinazolin-7-yl}piperidin-1-yl)-4-methyloxolan-3-ol], the “LRRK2 pIC50” value turned out to be 9.03. On the same count and under the same terms, the value for `Cc1nn(C)c(Nc2ncc3cc(Cl)c(C4CCN([C@]5(C)COC[C@@H]5O)CC4)cc3n2)c1C#N` (single isomer, unassigned) [Ex-2.86, (3S,4S) or (3R,4R) 5-({6-chloro-7-[1-(4-hydroxy-3-methyloxolan-3-yl)piperidin-4-yl]quinazolin-2-yl}amino)-l,3-dimethyl-1H-pyrazole-4-carbonitrile] was 8.05; that for `C[C@@]1(N2CCC(c3cc4nc(Nc5ccnn5C5CC5(F)F)ncc4cc3Cl)CC2)COC[C@@H]1O` (single isomer, unassigned) [Ex-2.87, (S)(3S,4S) or (S)(3R,4R) or (R)(3S,4S) or (R)(3R,4R) 4-[4-(6-chloro-2-{[1-(2,2-difluorocyclopropyl)-1H-pyrazol-5-yl]amino}quinazolin-7-yl)piperidin-1-yl]-4-methyloxolan-3-ol] was 8.04; that for `CC1(n2ncc(Nc3ncc4cc(Cl)c(C5CCN([C@]6(C)COC[C@@H]6O)CC5)cc4n3)c2Cl)CC1` (single isomer, unassigned) [Ex-2.88, (3S,4S) or (3R,4R) 4-[4-(6-chloro-2-{[5-chloro-1-(1-methylcyclopropyl)-1H-pyrazol-4-yl]amino}quinazolin-7-yl)piperidin-1-yl]-4-methyloxolan-3-ol] was above 9.20. As to `Cn1nc(C(F)(F)F)cc1Nc1ncc2cc(Cl)c(C3CCN([C@]4(C)COC[C@@H]4O)CC3)cc2n1` (single isomer, unassigned) [Ex-2.89, (3S,4S) or (3R,4R) 4-[4-(6-chloro-2-{[1-methyl-3-(trifluoromethyl)-1H-pyrazol-5-yl]amino}quinazolin-7-yl)piperidin-1-yl]-4-methyloxolan-3-ol], the “LRRK2 pIC50” value amounted to 7.39. As to `Cn1ncc(Nc2ncc3cc(Cl)c(C4CCN([C@]5(C)COC[C@@H]5O)CC4)cc3n2)c1C(F)(F)F` (single isomer, unassigned) [Ex-2.90, (3S,4S) or (3R,4R) 4-(4-(6-chloro-2-((1-methyl-5-(trifluoromethyl)-1H-pyrazol-4-yl)amino)quinazolin-7-yl)piperidin-1-yl)-4-methyltetrahydrofuran-3-olyl)piperidin-1-yl]-4-methyloxolan-3-ol], the “LRRK2 pIC50” value was above 9.20. Still for that read-out and setting: to `C[C@@]1(N2CCC(c3cc4nc(Nc5cnn(C6CC6)c5C(F)F)ncc4cc3Cl)CC2)COC[C@@H]1O` (single isomer, unassigned) [Ex-2.91, (3S,4S) or (3R,4R) 4-[4-(6-chloro-2-{[1-cyclopropyl-5-(difluoromethyl)-1H-pyrazol-4-yl]amino}quinazolin-7-yl)piperidin-1-yl]-4-methyloxolan-3-ol] belongs above 9.20; to `CC1(N2CCC(n3ncc(Nc4ncc5cc(Cl)c(C6CC6(F)F)cc5n4)c3Cl)C(F)C2)COC1` (single isomer, unassigned) [Ex-3.1, (3R,4R)(7S) or (3R,4R)(7R) or (3S,4S)(7S) or (3S,4S)(7R) 6-chloro-N-(5-chloro-1-(3-fluoro-1-(3-methyloxetan-3-yl)piperidin-4-yl)-1H-pyrazol-4-yl)-7-(2,2-difluorocyclopropyl)quinazolin-2-amine], 7.54. On the same count and under the same terms, the value for `CC1(N2CCC(n3ncc(Nc4ncc5cc(Cl)c(C6CC6(F)F)cc5n4)c3Cl)C(F)C2)COC1` (single isomer, unassigned) [Ex-3.2, (3R,4R)(7S) or (3R,4R)(7R) or (3S,4S)(7S) or (3S,4S)(7R) 6-chloro-N-(5-chloro-1-(3-fluoro-1-(3-methyloxetan-3-yl)piperidin-4-yl)-1H-pyrazol-4-yl)-7-(2,2-difluorocyclopropyl)quinazolin-2-amine] was 7.07; that for `CCN1CC[C@@H](c2cc3nc(Nc4cnn(CC(C)(C)O)c4Cl)ncc3cc2Cl)[C@H](F)C1` (single isomer, unassigned) [Ex-4.4, (3S,4S) or (3R,4R) 1-(5-chloro-4-((6-chloro-7-(1-ethyl-3-fluoropiperidin-4-yl)quinazolin-2-yl)amino)-1H-pyrazol-1-yl)-2-methylpropan-2-ol] was 8.88.

In the case of `O[C@@H]1COCC1N1CC[C@H](c2cc3nc(Nc4cnn(C5CC5(F)F)c4Cl)ncc3cc2Cl)[C@@H](F)C1` (single isomer, unassigned) [Ex-4.9, (R)(3S,4S)(3S,4S) or (R)(3S,4S)(3R,4R) or (R)(3R,4R)(3S,4S) or (R)(3R,4R)(3R,4R) or (S)(3S,4S)(3S,4S) or (S)(3S,4S)(3R,4R) or (S)(3R,4R)(3S,4S) or (S)(3R,4R)(3R,4R) 4-(4-(6-chloro-2-((5-chloro-1-(2,2-difluorocyclopropyl)-1H-pyrazol-4-yl)amino)quinazolin-7-yl)-3-fluoropiperidin-1-yl)tetrahydrofuran-3-ol], the “LRRK2 pIC50” value is listed as above 9.20.

As to `CC1(N2CC[C@H](c3cc4nc(Nc5cnn(C6CC6(F)F)c5Cl)ncc4cc3Cl)[C@@H](F)C2)COC[C@@H]1O` (single isomer, unassigned) [Ex-4.10, (R)(3S,4S)(3S,4S) or (R)(3S,4S)(3R,4R) or (R)(3R,4R)(3S,4S) or (R)(3R,4R)(3R,4R) or (S)(3S,4S)(3S,4S) or (S)(3S,4S)(3R,4R) or (S)(3R,4R)(3S,4S) or (S)(3R,4R)(3R,4R) 4-(6-chloro-2-((5-chloro-1-(2,2-difluorocyclopropyl)-1H-pyrazol-4-yl)amino)quinazolin-7-yl)-3-fluoropiperidin-1-yl)-4-methyltetrahydrofuran-3-ol], the “LRRK2 pIC50” value is given as above 9.20. Same read-out and setting: to `CC1(N2CC[C@H](c3cc4nc(Nc5cnn(C6CC6(F)F)c5Cl)ncc4cc3Cl)[C@@H](F)C2)COC[C@@H]1O` (single isomer, unassigned) [Ex-4.11, (R)(3S,4S)(3S,4S) or (R)(3S,4S)(3R,4R) or (R)(3R,4R)(3S,4S) or (R)(3R,4R)(3R,4R) or (S)(3S,4S)(3S,4S) or (S)(3S,4S)(3R,4R) or (S)(3R,4R)(3S,4S) or (S)(3R,4R)(3R,4R) 4-(6-chloro-2-((5-chloro-1-(2,2-difluorocyclopropyl)-1H-pyrazol-4-yl)amino)quinazolin-7-yl)-3-fluoropiperidin-1-yl)-4-methyltetrahydrofuran-3-ol] belongs 8.73; to `CN1CC[C@@H](c2cc3nc(Nc4cnn(CC(C)(C)O)c4Cl)ncc3cc2Cl)[C@H](F)C1` (single isomer, unassigned) [Ex-4.22, (3S,4S) or (3R,4R) 1-(5-chloro-4-{[6-chloro-7-(3-fluoro-1-methylpiperidin-4-yl)quinazolin-2-yl]amino}-1H-pyrazol-1-yl)-2-methylpropan-2-ol], above 9.20; to `CN1CC[C@H](c2cc3nc(Nc4cnn(CC(C)(C)O)c4Cl)ncc3cc2Cl)[C@@H](F)C1` (single isomer, unassigned) [Ex-4.23, (3S,4S) or (3R,4R) 1-(5-chloro-4-{[6-chloro-7-(3-fluoro-1-methylpiperidin-4-yl)quinazolin-2-yl]amino}-1H-pyrazol-1-yl)-2-methylpropan-2-ol], 9.08. The same measure, in the same setting: the value for `CC1(n2ncc(Nc3ncc4cc(Cl)c([C@@H]5CCN(C6COC6)C[C@H]5F)cc4n3)c2Cl)CC1` (single isomer, unassigned) [Ex-4.27, (3S,4S) or (3R,4R) 6-chloro-N-[5-chloro-1-(1-methylcyclopropyl)-1H-pyrazol-4-yl]-7-[3-fluoro-1-(oxetan-3-yl)piperidin-4-yl]quinazolin-2-amine] was above 9.20.

The same test, now with this note: G2019S LRRK2, 134 μM ATP (Km ATP), mean values; read-out: LRRK2 pIC50 (converted).
On to `F[C@@H]1CNCC[C@H]1c1cc2nc(Nc3cnn(C4CC4)c3Cl)ncc2cc1Cl` (single isomer, unassigned) [Ex-4.2, (3S,4S) or (3R,4R) 6-chloro-N-(5-chloro-1-cyclopropyl-1H-pyrazol-4-yl)-7-(3-fluoropiperidin-4-yl)quinazolin-2-amine], for which the IC50 is below 0.631 nM. Regarding `CCN1CC[C@@H](c2cc3nc(Nc4cnn(CC(C)(C)O)c4Cl)ncc3cc2Cl)[C@H](F)C1` (single isomer, unassigned) [Ex-4.5, (3S,4S) or (3R,4R) 1-(5-chloro-4-((6-chloro-7-(1-ethyl-3-fluoropiperidin-4-yl)quinazolin-2-yl)amino)-1H-pyrazol-1-yl)-2-methylpropan-2-ol], the IC50 is 1.62 nM.

Take `Cc1c(Nc2ncc3cc(Cl)c(C4CCN(CC(O)C(F)(F)F)CC4)cc3n2)cnn1C1CC1` (single isomer, unassigned) [Ex-4.12, (R) or (S) 3-(4-(6-chloro-2-((1-cyclopropyl-5-methyl-1H-pyrazol-4-yl)amino)quinazolin-7-yl)piperidin-1-yl)-1,1,1-trifluoropropan-2-ol]: the IC50 was below 0.631 nM. Take `CC1(n2ncc(Nc3ncc4cc(Cl)c(C5CCN(C6COC6)C5)cc4n3)c2Cl)CC1` (single isomer, unassigned) [Ex-4.25, (S) or (R) 6-chloro-N-[5-chloro-1-(1-methylcyclopropyl)-1H-pyrazol-4-yl]-7-[1-(oxetan-3-yl)pyrrolidin-3-yl]quinazolin-2-amine]: the IC50 was 3.09 nM. As for `CC1(n2ncc(Nc3ncc4cc(Cl)c(C5CCN(C6COC6)C5)cc4n3)c2Cl)CC1` (single isomer, unassigned) [Ex-4.26, (S) or (R) 6-chloro-N-[5-chloro-1-(1-methylcyclopropyl)-1H-pyrazol-4-yl]-7-[1-(oxetan-3-yl)pyrrolidin-3-yl]quinazolin-2-amine], the IC50 is 4.9 nM.

For the origin of these results see US12540131B2 (Merck Sharp & Dohme LLC, priority 2019, dated 2026).
